Results published in patent US20080146495A1, “Methods for Treating Hiv by Inhibiting Cd4 Down-Modulation” (The Regents of the University of California, priority 2005, published 2008).

Experiments:
Assay type in all cases: cell-based
HIV-1 = test system: HIV-1
[1] = test system: HIV-1 Nef (NA7) fused to GFP; conditions: 293T cells transduced with pHR'-CMV vectors, transfected with Nef (NA7)-GFP
HIV-1 R9 = test system: HIV-1 R9
HIV-1 (R9) [2] = assay: HIV-induced CD4 down-modulation in transduced CD4-positive cell lines (SupT1, C8166, MAGIC5B)
HIV-1 (R9) [3] = assay: Infectivity in MAGIC5 cells of particles released from transduced SupT1, C8166 and MAGIC5B cells; conditions: three cell types (SupT1, C8166, MAGIC5B); compared to control GFP vectors
Protocol: Infectivity assays were performed with MAGIC-5 cells using equal amounts of input virus (measured as ng p24 protein) in the presence of 20 μg/ml DEAE dextran. Infection was allowed for 48 hours. Routinely, after 8 hrs of infection, 1 μM AZT was added to block second rounds of virus replication. Infected cells were scored after staining for beta-galactosidase with X-Gal.
Truncated receptor provided to a cell via one of the above-described vectors negatively interferes with HIV-induced down-regulation of endogenous CD4 receptor. […] Though any suitable cell line could be used, the three chosen were: SupT1, C8166, and MAGIC5B. These were selected because they express high levels of viral receptor, as shown in the bottom panel of FIG. 7. Transduction efficiencies with GFP control vectors were higher than 90% in all cell lines, as estimated by flow cytometry. Infection of mock-transduced cells with HIV-1 led to efficient down-modulation of CD4. […] In these cultures, a population of low-CD4/p24-positive infected cells that had undergone receptor down-modulation emerged. […] The infectivity of viral particles released from the cells was determined as with respect to FIG. 5, above.

HIV-1 (R9) [4] = assay: Surface CD4 down-modulation in transduced PBMC infected with HIV-1 (flow cytometry)
[5] = test system: CXCR4-tropic R9 HIV-1 strain; assay: Viral replication assay in transduced Jurkat Low-CD4 cells (p24 accumulation)
[6] = test system: HIV-1 Env (gp160, gp120, gp41)
[7] = virions purified through sucrose cushions

Compound | extent of inhibition of infectivity relative to that by CD4Δcyt expression (HIV-1; 1 μM added to target MAGIC5 cells) | effect of Nef-GFP expression on surface expression of the CD4 variant [1] | amount on the surface of infected cells, mean values (HIV-1 R9) | down-modulation of surface receptor by HIV-1 (VSV) (HIV-1 R9) | surface levels in HIV-1 infected cells, higher than in infected cells transduced with wild-type CD4 (HIV-1 R9) [fold] | extent of inhibition in single-round infectivity assays (HIV-1) | reduced infectivity of viral progeny (HIV-1) [fold] | reduction of infectivity of HIV-1 (HIV-1) | surface CD4 levels in infected cells, higher than in mock-infected cells (HIV-1 (R9) [2]; SupT1, C8166, MAGIC5B cells) | receptor down-modulation after HIV-1 infection of transduced CD4-positive cells (HIV-1 (R9) [2]; SupT1, C8166, MAGIC5B cells, 48 h after infection) | p24-positive cells with low levels of CD4 receptor (HIV-1 (R9) [2]; cultures of SupT1 and C8166 cells) | infectivity of viral particles released from transduced cells (HIV-1 (R9) [3]) | reduction in CD4 down-modulation compared to cells transduced with full-length receptor (HIV-1 (R9) [4]; PBMC infected with HIV-1) | numbers of low-CD4/GFP-positive cells after HIV-1 infection (HIV-1 (R9) [4]; PBMC transduced to similar levels with pWPI vector) | HIV-1 replication (p24 accumulation in cultures) ([5]; Jurkat Low-CD4 cells, HIV-1 R9) | revertant viruses ([5]; after more than 60 days, two independent experiments, Jurkat Low-CD4 cells exposed to HIV-1) | gp160 envelope precursor in producer cell lysates (anti-gp120 western blot) ([6]; total cell lysates of 293T producer cells) | steady-state levels of gp41 in producer cells ([6]; transduced 293T cells) | gp41 incorporation in membranes from virions [6, 7] | gp120 incorporation into / exclusion from virions [6, 7]
Cc1cn([C@H]2C[C@H](N=[N+]=[N-])[C@@H](CO)O2)c(=O)[nH]c1=O [AZT, reference compound] | comparable |  |  |  |  |  |  |  |  |  |  |  |  |  |  |  |  |  |  | 
CD4Δcyt |  | did not alter the expression | 2857 | completely resistant to down-modulation | 11 | greater than 99% | 100 | more than 1000 fold | 3- to 4 fold | failed to down-modulate the receptor | no longer observed | largely diminished infectivity | more than 10 fold | reduced numbers of low-CD4/GFP-positive cells | complete abrogation of HIV-1 replication | not detected | accumulation of a 160 kDa protein band | reduction in the steady-state levels of gp41 | Reductions in gp41 incorporation | more severe
